This assay has as its target T1, M-phase inducer phosphatase 1 (Homo sapiens, UniProt P30304).
T1 sequence (P30304 whole entry): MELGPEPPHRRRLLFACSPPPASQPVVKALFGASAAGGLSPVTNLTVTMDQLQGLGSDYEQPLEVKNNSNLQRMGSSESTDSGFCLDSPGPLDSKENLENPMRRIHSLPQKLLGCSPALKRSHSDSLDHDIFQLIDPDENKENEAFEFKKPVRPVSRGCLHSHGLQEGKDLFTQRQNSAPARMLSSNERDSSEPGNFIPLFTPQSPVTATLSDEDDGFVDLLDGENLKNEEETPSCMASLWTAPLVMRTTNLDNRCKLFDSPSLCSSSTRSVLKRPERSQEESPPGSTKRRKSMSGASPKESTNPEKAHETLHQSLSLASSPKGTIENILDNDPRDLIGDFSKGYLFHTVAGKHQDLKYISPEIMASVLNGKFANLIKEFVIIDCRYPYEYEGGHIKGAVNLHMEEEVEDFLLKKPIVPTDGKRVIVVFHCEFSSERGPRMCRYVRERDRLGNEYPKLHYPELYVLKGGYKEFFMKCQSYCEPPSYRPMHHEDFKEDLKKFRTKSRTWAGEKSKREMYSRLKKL
As to the kind of experiment: Compound was evaluated for the inhibition of Cdc25A phosphatase by using fluorescein diphosphate as substrate.

In ChEMBL document CHEMBL1131184, “Novel CDC25A phosphatase inhibitors from pyrolysis of 3-alpha-azido-B-homo-6-oxa-4-cholesten-7-one on silica gel” (J Med Chem, 1998) one finds IC50 data, which are given here for five compounds.

pIC50: −log10 of the molar value.

Take `CC(C)CCCC(C)[C@H]1CC[C@H]2[C@@H]3CC(=O)O[C@](C)(CC/C=C\C#N)[C@H]3CC[C@]12C` (stereo not given in full): the negative-log IC50 (pIC50) is below 4.30. Next, `CC(C)CCCC(C)[C@H]1CC[C@H]2[C@@H]3CC(=O)O[C@@](C)(CC/C=C\C#N)[C@H]3CC[C@]12C` (stereo not given in full): 4.88. Next, `C/C(=C\C/C=C\C#N)[C@H]1CC[C@]2(C)[C@@H](C(C)CCCC(C)C)CC[C@H]2[C@@H]1CC(=O)O` (stereo not given in full): 4.62.

In turn, `C=C(CCCCC#N)[C@H]1CC[C@]2(C)[C@@H]([C@H](C)CCCC(C)C)CC[C@H]2[C@@H]1CC(=O)O` gave a pIC50 of 5.66. `C=C(CC/C=C\C#N)[C@H]1CC[C@]2(C)[C@@H](C(C)CCCC(C)C)CC[C@H]2[C@@H]1CC(=O)O` (stereo not given in full) had a pIC50 of 5.01.

By pIC50 is commonly meant the negative decadic logarithm of the IC50, by convention in mol/L. Low readings indicate a large IC50, high ones a small IC50.
